Test results taken from patent US8052963B2, “[(4-oxo-4H-chromen-3-yl)hydroxymethyl]- or [(4-oxo-4H-chromen-3-yl)methyl]phosphonic acid derivatives” (Merck Patent Gesellschaft mit beschrankter Haftung, priority 2006, dated 2011).

Assay: TEAC assay (trolox equivalent antioxidant activity assay)
Settings: absorption at 734 nm measured after 6 minutes; relative to trolox = 1.0
Description: • a) The basis for the determination of the antioxidative efficacy is the so-called DPPH test, as described in Bünger et al. [Buenger, J., Ackermann, H., Jentzsch, A., Mehling, A., Pfizner, I., Reiffen, K.-A., Schroeder, K.-R., and Wollenweber U., An interlaboratory comparison of methods used to assess antioxidant potentials, Int. J. Cosm. Sci., 28 (2006) 1-12]. The anti-oxidative efficacy of [(7,8-dihydroxy-4-oxo-4H-chromen-3-yl)hydroxy-methyl]phosphonic acid is determined in the DPPH test. […] J. Cosm. Sci., 28 (2006), 1-12].
ABTS [2,2′-azinobis(3-ethylbenzothiazoline-6-sulfonic acid)] reacts with potassium peroxodisulfate by generating a stable free-radical cation which absorbs at 734 nm. The antioxidant measured reduces the free-radical cation and thus causes a weakening of the absorption capacity at 734 nm. The absorption is measured after a fixed time span of 6 minutes. The anti-oxidative potential of the substance measured is indicated as activity compared with trolox. The substance measured may be present dissolved in water or ethanol during the measurement.

| Structure (SMILES) | antioxidative potential, activity compared with trolox (TEAC) |
| --- | --- |
| O=c1c(C(O)P(=O)(O)O)coc2c(O)c(O)ccc12 (centres unmarked) [Example 1, [(7,8-dihydroxy-4-oxo-4H-chromen-3-yl)-hydroxymethyl]phosphonic acid] | 0.93 |
| Cc1c(C)c2c(c(C)c1O)CCC(C)(C(=O)O)O2 (centres unmarked) [trolox, reference compound] | 1.0 |
